Measurements: publication PMC10149936, “Cofilin activation in pancreatic acinar cells plays a pivotal convergent role for mediating CCK-stimulated enzyme secretion and growth” (Frontiers in Physiology, 2023)

What was measured:
[1] = test system: cofilin / total PP2A association; test: co-immunoprecipitation of cofilin with total PP2A in pancreatic acini; assay type: cell-based, rat; conditions: for increase in total PP2A co-immunoprecipitation with cofilin: CCK-8 100 nM 3 min, TPA 1 µM 5 min, Figure 8B
Method: For co-immunoprecipitation, 600 μg of protein was incubated with 15 μL of the anti-cofilin antibody (Santa Cruz Biotechnology, Inc. Dallas, TX) and 25 μL of protein A/G agarose beads (Thermo-Fisher Scientific. Waltham, MA) overnight at 4°C under agitation. Samples were washed three times with lysis buffer, re-suspended in 12.5 μL of Sample Buffer, Laemlii 2x concentrate and boiled for 5 min before western blotting.
FIGURE 6 Effect of CCK-8 (100 nM) to alter co-immunoprecipitation of cofilin with total PP2A (A) or PP1 (B). Isolated pancreatic acini were incubated in the absence or presence of CCK-8 (100 nM) for 3 min and then lysed. Equal amounts of protein were co-immunoprecipitated with an anti-cofilin (Santa Cruz, SC-376476) and then subjected to Western blots using anti-PP2A and anti-PP1. Bands were visualized using chemiluminescence and quantified by densitometry. Top: Results of a representative blot of four independent experiments are shown. Bottom: Means ± S.E. of at least 4 independent experiments. Results are expressed as % of basal stimulation of the control group. N.S., No significant. Effect of the lysate, lysis buffer, Protein A/G agarose beads (beads) or Anti-cofilin antibody (Anti-cofilin ab) individually on phospho and total cofilin (pS3), phospho and total PP2A, phospho and total PP1 and tubulin. Lysates were analyzed using cofilin (pS3), Total cofilin, PP2A (pY307), Total PP2A, PP1(pT320), Total PP1 and tubulin. Antibody detecting tubulin was used to verify loading of equal amounts of protein.
FIGURE 8 Effect of a PKD inhibitor, kbNB, or a Src inhibitor, PP2, on the ability of CCK-8 (100 nM) and TPA (1 µM) to stimulate the association of cofilin with either phospho-PP2A (A) or total PP2A (B). Isolated pancreatic acini were incubated in the absence or presence of kbNB (0.1 µM) or PP2 (10 µM) for 3 h and then incubated with no addition (control), CCK-8 (100 nM, 3 min) or TPA (1 μM, 5 min), and then lysed. […] Bands were visualized using chemiluminescence and quantified by densitometry. […] Results are expressed as % of basal stimulation of the control group. […]

[2] = test system: SSH1 (pS978) in pancreatic acini; test: SSH1 phosphorylation (pS978 SSH1 Western blot) in isolated rat pancreatic acini; assay type: cell-based; conditions: for SSH1 dephosphorylation (activation) at short incubation: 0.5 min and 1.5 min, data not shown; for SSH1 phosphorylation (i.e., deactivation), maximum increment: 30 min
Method: Pancreatic acini preparations were obtained by collagenase digestion as previously described ([Bissonnette et al., 1984]; [Sato et al., 1989]; [Ramos-Alvarez and Jensen, 2018]). […] Isolated acini and CCK1-R/Panc-1 cells (M&M 2.2.1) were also preincubated with two SSH1 inhibitors, D3 (25 μM, 1 h) ([Li et al., 2015]) or SE (50 μM, 3 h for acini; 24 h for CCK1-R/Panc-1 cells) ([Lee et al., 2017]). […] Cells were lysed in lysis buffer (50 mM Tris/HCl pH 7.5, 150 mM NaCl, 1% Triton X-100, 1% deoxycholate, 0.1% sodium azide, 1 mM EGTA, 0.4 mM EDTA, 0.2 mM sodium orthovanadate, 1 mM PMSF, and one protease inhibitor tablet per 10 mL). After sonication, lysates were centrifuged at 10,000×g for 15 min at 4°C and protein concentration was measured using the Bio-Rad protein assay reagent. Finally, cells were processed as below for Western blotting.
Western blotting and immunoprecipitation were performed as described previously ([Ramos-Alvarez and Jensen, 2018]). Whole cell lysates were subjected to SDS-PAGE using 4%–20% Tris–Glycine gels. […] Finally, membranes were then washed again twice in blocking buffer for 4 min, twice in washing buffer for 4 min, incubated for 4 min with chemiluminescence detection reagents. The intensity of the protein bands was measured using GeneTools software from Syngene, which were assessed in the linear detection range.
FIGURE 2 Time course of phosphorylation of Lim kinase (LIMK) (A), cofilin (B) and Slingshot 1 phosphatase (SSH1) (C) induced by CCK-8 and TPA. Isolated pancreatic acini were incubated with either no addition (control), CCK-8 (0.3 and 100 nM) or TPA (1 µM) for the indicated periods of time and then lysed. Western blots were analyzed using anti-pT508 LIMK, anti-pS3 cofilin and anti-pS978 SSH1, which […] the activation states of LIMK, cofilin and SSH1. Bands were visualized using chemiluminescence and quantified by densitometry. Top: Results of a representative blot of three independent experiments are shown. Bottom: Means ± S.E. of at least 3 independent experiments. Results are expressed as % of basal stimulation of the control group. *, p < 0.05 compared to the control group.

[3] = test system: cofilin (pS3) in AR42J cells; test: cofilin activation (pS3 cofilin Western blot) in AR42J cells; assay type: cell-based; conditions: Cytochalasin D 10 µM or Paclitaxel 5 µM, 4 h; A71378 30 nM 10 min
Method: CCK1 receptor transfected Panc-1 (CCK1-R/Panc-1) cells ([Berna et al., 2009]) and AR42J cells, were cultured in DMEM supplemented with 10% FBS and 1% penicillin/streptomycin and in RPMI supplemented with 10% FBS and 1% penicillin/streptomycin, respectively; and split 1:10 weekly with trypsin/EDTA, after washing in PBS. Finally, cells were seeded in 6-well plate and serum starved overnight, until they were 80% confluent. Cells were incubated at 37°C in 5% CO2/95% air. AR42J cells were treated with 100 nM dexamethasone for 72°h, which stimulates their differentiation into exocrine cells ([Logsdon, 1986]).
Western blotting and immunoprecipitation were performed as described previously ([Ramos-Alvarez and Jensen, 2018]). Whole cell lysates were subjected to SDS-PAGE using 4%–20% Tris–Glycine gels. […] The intensity of the protein bands was measured using GeneTools software from Syngene, which were assessed in the linear detection range.
FIGURE 12 Effect of two cofilin inhibitors, Cytochalasin D or Paclitaxel (A, B), or cofilin siRNA (C), on the ability of A71378 (30 and 10 nM) to alter activation of cofilin (A) and p44/42 (B, C). […] Western blots were analyzed using anti-pS3 cofilin, anti-pT202/Y204 p44/42 and Tubulin. Bands were visualized using chemiluminescence and quantified by densitometry. […] Results are expressed as % of basal stimulation of the control group. […]

| Compound | increase in total PP2A co-immunoprecipitation with cofilin [1] [%] | SSH1 dephosphorylation (activation) at short incubation [2] | SSH1 phosphorylation (i.e., deactivation), maximum increment ([2]; TPA 1 µM) [%] | inhibition of CCK1-R-induced activation of cofilin in AR42J cells [3] | increase in PP2A immunoprecipitation with cofilin ([1]; CCK-8 100 nM, 3 min, Figure 6) [%] | SSH1 phosphorylation (i.e., deactivation), maximum increment ([2]; CCK-8 100 nM) [%] |
| --- | --- | --- | --- | --- | --- | --- |
| CCCCCCCCCCCCCC(=O)O[C@@H]1[C@@H](C)[C@@]2(O)[C@@H](C=C(CO)C[C@]3(O)C(=O)C(C)=C[C@@H]23)[C@H]2C(C)(C)[C@]12OC(C)=O [TPA, 12-O-tetradecanoylphobol-13-acetate] | 40 | no dephosphorylation of SSH1 (activation) was seen | 151 | – | – | – |
| CC(=O)O[C@H]1C(=O)[C@@]2(C)[C@H]([C@H](OC(=O)c3ccccc3)[C@]3(O)C[C@H](OC(=O)[C@H](O)[C@@H](NC(=O)c4ccccc4)c4ccccc4)C(C)=C1C3(C)C)[C@]1(OC(C)=O)CO[C@@H]1C[C@@H]2O [Paclitaxel] | – | – | – | completely inhibited | – | – |
| C=C1[C@@H](C)[C@H]2[C@H](Cc3ccccc3)NC(=O)[C@]23[C@H](OC(C)=O)/C=C/[C@@](C)(O)C(=O)[C@@H](C)C/C=C/[C@H]3[C@@H]1O [Cytochalasin D] | – | – | – | completely inhibited | – | – |
| COOH-terminal octapeptide of cholecystokinin [CCK-8] | 40 | no dephosphorylation of SSH1 (activation) was seen | – | – | 25 | 162 |
